# Laboratory results taken from article PMC7010297, “How the initiating ribosome copes with ppGpp to translate mRNAs” (PLoS Biology, 2020).
# Several values for one entry are separate records, joined by “and”; a condition that tells them apart may be missing. Equal entries are not always repeated. Where two headings read alike, the source gives them in different places.
# Experiments:
# [1] = target: T1, IF2 (Escherichia coli, UniProt P0A705); test: IF2-Bpy-tRNAi-GNP ternary complex formation by MST; format: binding; details: S2A Fig
# T1 construct: 6xHis (N); made in house
# T1 sequence (P0A705 whole entry): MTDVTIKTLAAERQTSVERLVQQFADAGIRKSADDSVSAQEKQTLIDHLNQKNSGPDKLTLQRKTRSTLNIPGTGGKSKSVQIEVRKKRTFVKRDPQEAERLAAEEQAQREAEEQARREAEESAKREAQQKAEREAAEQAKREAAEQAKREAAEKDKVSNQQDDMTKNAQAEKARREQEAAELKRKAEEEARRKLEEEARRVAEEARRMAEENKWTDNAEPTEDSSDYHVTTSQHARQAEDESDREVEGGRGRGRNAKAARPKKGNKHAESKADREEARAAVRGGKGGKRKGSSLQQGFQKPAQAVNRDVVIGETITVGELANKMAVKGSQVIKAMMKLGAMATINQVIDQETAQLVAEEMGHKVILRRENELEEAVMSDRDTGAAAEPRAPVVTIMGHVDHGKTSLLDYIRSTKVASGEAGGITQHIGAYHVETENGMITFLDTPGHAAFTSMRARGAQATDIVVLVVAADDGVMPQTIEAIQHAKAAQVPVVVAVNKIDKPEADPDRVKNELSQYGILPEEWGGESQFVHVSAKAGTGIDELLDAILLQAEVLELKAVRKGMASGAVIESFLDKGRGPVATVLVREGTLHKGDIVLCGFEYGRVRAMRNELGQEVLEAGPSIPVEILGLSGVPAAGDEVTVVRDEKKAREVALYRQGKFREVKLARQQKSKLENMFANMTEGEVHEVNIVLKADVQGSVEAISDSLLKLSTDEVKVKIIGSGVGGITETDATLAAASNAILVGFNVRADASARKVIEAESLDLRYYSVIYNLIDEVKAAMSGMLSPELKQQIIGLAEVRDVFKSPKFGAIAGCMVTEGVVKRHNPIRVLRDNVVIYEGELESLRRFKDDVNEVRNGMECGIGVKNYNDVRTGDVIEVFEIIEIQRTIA
# Description: Supplementary file pbio.3000593.s002.pdf: S2 Fig IF2-Bpy-tRNAi complex formation as a function of guanosine nucleotides. (A) IF2 concentration dependencies for Bpy-tRNAi binding in the presence of 0.5 mM of the indicated guanosine nucleotides to build IF2-tRNA-GNP ternary complexes (TCs). […] Three to five measurements were performed; mean and standard deviation are plotted (S1 Data). […] (PDF) Click here for additional data file.
# [2] = target: T2, IF2-bound 30S IC (Escherichia coli, UniProt P0A705); test: 30S IC formation by MST, guanosine nucleotide titration; format: binding; details: for MST Average / MST Replicates (a.u.): Fig 2B (GDP/ppGpp series);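 as to MST Average: lower thermophoresis signal means Bpy-tRNAi dissociation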;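 as to MST Replicates (a.u.): lower thermophoresis signal means Bpy-tRNAi dissociation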
# T2 construct: 6xHis (N); made in house
# T2 sequence (P0A705 whole entry, looked up): as the sequence (P0A705 whole entry) above
# In short: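 Binding of fluorescently labelled initiator tRNA (Bpy-tRNAi) to E. coli 30S subunits followed by microscale thermophoresis, titrating guanosine nucleotides at constant 1 μM IF2. Dissociation constants from quadratic nonlinear fits of Ff/Fi versus ligand concentration; three measurements, mean ± SD.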
# [3] = tested on: mRNA translation (protein synthesis); test: In vitro translation in pure cell-free system (PURExpress, Lumio labelling); format: biochemical
# Description: Fig 5 Permissive ppGpp-mediated inhibition of mRNA translation. (A) Scheme of the translating 70S complex. (B) In vitro translation of mTufA and mInfA derivatives harboring a coding sequence for the Lumio labelling system (Experimental conditions and analysis). […] Synthetized proteins were fluorescently labelled and resolved by 20% SDS-PAGE. The resulting images were analyzed by pixel densitometry using ImageJ [37] to estimate translation efficiencies (TEs). […] (D) Comparison of inhibitory constants for both mRNAs as measured during 30S IC formation (white) or overall translation efficiency (gray). Mean and standard deviations from three measurements are plotted (S1 Data). GTP, guanosine triphosphate; mInfA, InfA mRNA; mTufA, TufA mRNA; TE, translation efficiency.
# In order to visualize overall protein synthesis, we used a coupled transcription-translation cell-free system. Reactions were carried out in 10 μL of the purified components from the PURExpress In Vitro Protein Synthesis Kit (E6800S/L, NEB, Ipswich, Massachusetts) with the corresponding templates. These reactions were incubated at 37°C for 2 hours. […] After incubation, sample processing and fluorescent labelling were carried out as described by the Lumio Green Detection Kit (LC6090, ThermoScientific, Waltham, Massachusetts) for in vitro reactions. Finally, 20 μL of labelled samples were loaded into 20% SDS-PAGE gels and visualized under a Blue-light LED transilluminator with orange filter (Cleaver Scientific LTD, Warwickshire, UK). Gel quantification was performed by pixel densitometry analysis using ImageJ software.
smiles,measurement,setting,value
Nc1nc2c(ncn2[C@@H]2O[C@H](COP(=O)(O)OP(=O)(O)O)[C@@H](OP(=O)(O)OP(=O)(O)O)[C@H]2O)c(=O)[nH]1 [ppGpp],MST Average,[1]; IF2 0.08 µM,943.56 a.u.
same,MST Replicates,[1]; IF2 0.08 µM,950.05 a.u. and 945.75 a.u. and 934.87 a.u.
same,MST Average,[1]; IF2 0.16 µM,943.40 a.u.
same,MST Replicates,[1]; IF2 0.16 µM,949.30 a.u. and 935.29 a.u. and 945.62 a.u.
same,MST Average,[1]; IF2 0.31 µM,945.38 a.u.
same,MST Replicates,[1]; IF2 0.31 µM,948.56 a.u. and 936.80 a.u. and 950.79 a.u.
same,MST Average,[1]; IF2 0.63 µM,945.13 a.u.
same,MST Replicates,[1]; IF2 0.63 µM,936.31 a.u. and 947.81 a.u. and 951.27 a.u.
same,MST Average,[1]; IF2 1.25 µM,946.96 a.u.
same,MST Replicates,[1]; IF2 1.25 µM,952.23 a.u. and 948.54 a.u. and 940.12 a.u.
same,MST Average,[1]; IF2 2.50 µM,951.73 a.u.
same,MST Replicates,[1]; IF2 2.50 µM,945.20 a.u. and 956.43 a.u. and 953.55 a.u.
same,MST Average,[1]; IF2 5.00 µM,958.05 a.u.
same,MST Replicates,[1]; IF2 5.00 µM,952.00 a.u. and 959.98 a.u. and 962.17 a.u.
same,MST Average,[1]; IF2 10.00 µM,963.39 a.u.
same,MST Replicates,[1]; IF2 10.00 µM,958.44 a.u. and 964.79 a.u. and 966.94 a.u.
same,MST Average,[1]; IF2 20.00 µM,974.27 a.u.
same,MST Replicates,[1]; IF2 20.00 µM,972.33 a.u. and 976.56 a.u. and 973.92 a.u.
same,MST Average,[1]; IF2 40.00 µM,980.83 a.u.
same,MST Replicates,[1]; IF2 40.00 µM,982.65 a.u. and 981.22 a.u. and 978.62 a.u.
same,MST Average,[2]; nucleotide 0.13 µM,936.81 a.u.
same,MST Replicates (a.u.),"[2]; nucleotide 0.13 µM, constant IF2 (1 μM)",935.73 a.u. and 937.32 a.u. and 936.20 a.u. and 937.97 a.u.
same,MST Average,[2]; nucleotide 0.25 µM,935.17 a.u.
same,MST Replicates (a.u.),[2]; nucleotide 0.25 µM,933.09 a.u. and 935.35 a.u. and 935.04 a.u. and 937.21 a.u.
same,MST Average,[2]; nucleotide 0.50 µM,935.42 a.u.
same,MST Replicates (a.u.),[2]; nucleotide 0.50 µM,934.19 a.u. and 935.54 a.u. and 934.92 a.u. and 937.01 a.u.
same,MST Average,[2]; nucleotide 1.00 µM,934.04 a.u.
same,MST Replicates (a.u.),[2]; nucleotide 1.00 µM,932.40 a.u. and 934.21 a.u. and 934.12 a.u. and 935.41 a.u.
same,MST Average,[2]; nucleotide 2.00 µM,933.55 a.u.
same,MST Replicates (a.u.),[2]; nucleotide 2.00 µM,931.48 a.u. and 933.31 a.u. and 934.38 a.u. and 935.04 a.u.
same,MST Average,[2]; nucleotide 4.00 µM,931.78 a.u.
same,MST Replicates (a.u.),[2]; nucleotide 4.00 µM,930.04 a.u. and 931.00 a.u. and 932.61 a.u. and 933.45 a.u.
same,MST Average,[2]; nucleotide 8.00 µM,932.68 a.u.
same,MST Replicates (a.u.),[2]; nucleotide 8.00 µM,930.98 a.u. and 932.59 a.u. and 933.05 a.u. and 934.12 a.u.
same,MST Average,[2]; nucleotide 16.00 µM,932.30 a.u.
same,MST Replicates (a.u.),[2]; nucleotide 16.00 µM,931.44 a.u. and 932.29 a.u. and 931.81 a.u. and 933.65 a.u.
same,MST Average,[2]; nucleotide 31.00 µM,930.81 a.u.
same,MST Replicates (a.u.),[2]; nucleotide 31.00 µM,928.79 a.u. and 930.49 a.u. and 930.93 a.u. and 933.04 a.u.
same,MST Average,[2]; nucleotide 62.00 µM,932.86 a.u.
same,MST Replicates (a.u.),[2]; nucleotide 62.00 µM,931.23 a.u. and 932.53 a.u. and 932.57 a.u. and 935.11 a.u.
same,MST Average,[2]; nucleotide 125.00 µM,932.91 a.u.
same,MST Replicates (a.u.),[2]; nucleotide 125.00 µM,931.17 a.u. and 932.39 a.u. and 933.25 a.u. and 934.84 a.u.
same,promotion of Bpy-tRNAi binding (thermophoresis) in guanosine nucleotide titration,[2]; constant IF2 (1 μM),failed to promote Bpy-tRNAi binding at any concentration
same,P.D. Average,"[3]; mInfA, Log [ppGpp] 1.00",2.85 a.u.x10^4
same,P.D. Replicates (a.u.x10^4),"[3]; mInfA, Log [ppGpp] 1.00",2.78 a.u.x10^4 and 2.92 a.u.x10^4 and 2.86 a.u.x10^4
same,P.D. Average,"[3]; mInfA, Log [ppGpp] 2.40",2.28 a.u.x10^4
same,P.D. Replicates (a.u.x10^4),"[3]; mInfA, Log [ppGpp] 2.40",2.16 a.u.x10^4 and 2.34 a.u.x10^4 and 2.33 a.u.x10^4
same,P.D. Average,"[3]; mInfA, Log [ppGpp] 2.70",1.67 a.u.x10^4
same,P.D. Replicates (a.u.x10^4),"[3]; mInfA, Log [ppGpp] 2.70",1.54 a.u.x10^4 and 1.80 a.u.x10^4 and 1.68 a.u.x10^4
same,P.D. Average,"[3]; mInfA, Log [ppGpp] 3.00",0.00 a.u.x10^4
same,P.D. Replicates (a.u.x10^4),"[3]; mInfA, Log [ppGpp] 3.00",0.00 a.u.x10^4
same,P.D. Average,"[3]; mInfA, Log [ppGpp] 3.30",0.00 a.u.x10^4
same,P.D. Replicates (a.u.x10^4),"[3]; mInfA, Log [ppGpp] 3.30",0.00 a.u.x10^4
same,P.D. Average,"[3]; mInfA, Log [ppGpp] 3.60",0.00 a.u.x10^4
same,P.D. Replicates (a.u.x10^4),"[3]; mInfA, Log [ppGpp] 3.60",0.00 a.u.x10^4
same,Ki,"[3]; mRNA mInfA, read-out: Translation Efficiency Ki (μM), replicates",0.816 µM and 0.72 µM and 0.838 µM
same,Ki,"[3]; mRNA mInfA, read-out: Translation Efficiency Ki Average",0.791 µM
same,Ki,"[3]; mRNA mTufA, read-out: Translation Efficiency Ki (μM), replicates",2.23 µM and 2.32 µM and 2.09 µM
same,Ki,"[3]; mRNA mTufA, read-out: Translation Efficiency Ki Average",2.21 µM
same,P.D. Average,"[3]; mTufA, Log [ppGpp] 1.00",6.41 a.u.x10^4
same,P.D. Replicates (a.u.x10^4),"[3]; mTufA, Log [ppGpp] 1.00",6.33 a.u.x10^4 and 6.50 a.u.x10^4 and 6.41 a.u.x10^4
same,P.D. Average,"[3]; mTufA, Log [ppGpp] 2.40",5.17 a.u.x10^4
same,P.D. Replicates (a.u.x10^4),"[3]; mTufA, Log [ppGpp] 2.40",5.12 a.u.x10^4 and 5.25 a.u.x10^4 and 5.15 a.u.x10^4
same,P.D. Average,"[3]; mTufA, Log [ppGpp] 2.70",4.76 a.u.x10^4
same,P.D. Replicates (a.u.x10^4),"[3]; mTufA, Log [ppGpp] 2.70",4.72 a.u.x10^4 and 4.86 a.u.x10^4 and 4.70 a.u.x10^4
same,P.D. Average,"[3]; mTufA, Log [ppGpp] 3.00",3.38 a.u.x10^4
same,P.D. Replicates (a.u.x10^4),"[3]; mTufA, Log [ppGpp] 3.00",3.31 a.u.x10^4 and 3.47 a.u.x10^4 and 3.35 a.u.x10^4
same,P.D. Average,"[3]; mTufA, Log [ppGpp] 3.30",2.72 a.u.x10^4
same,P.D. Replicates (a.u.x10^4),"[3]; mTufA, Log [ppGpp] 3.30",2.68 a.u.x10^4 and 2.81 a.u.x10^4 and 2.66 a.u.x10^4
same,P.D. Average,"[3]; mTufA, Log [ppGpp] 3.60",1.21 a.u.x10^4
same,P.D. Replicates (a.u.x10^4),"[3]; mTufA, Log [ppGpp] 3.60",1.18 a.u.x10^4 and 1.24 a.u.x10^4 and 1.21 a.u.x10^4
